Laboratory results published in US8933232B2, “1,3,4-oxadiazole and 1,3,4-thiadiazole beta-lactamase inhibitors” (priority 2012, dated 2015).
Counter-ions that a name gives are not always drawn.

system: bacterial strains that express KPC β-lactamases; test: Synergy MIC / standard BLI potentiation MIC assay against strains expressing KPC β-lactamases; assay type: cell-based; details: in the presence of a β-lactam; comparator Avibactam
Procedure, shortened: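 Broth microdilution per modified CLSI M07-A9 in CAMHB, ~10^5 CFU/mL, 18-20 h at 37 °C with aeration; engineered E. coli carrying cloned β-lactamase plasmids kept in 25 μg/mL tetracycline. β-Lactam MIC read with BLI fixed at 4 μg/mL, or BLI serially diluted against fixed β-lactam; MIC = lowest concentration without visible turbidity.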

Structure (SMILES) | more active than Avibactam for at least one bacterial strain that expresses KPC β-lactamase and/or better spectrum of activity against KPC strains
NC1CC(NCc2nnc([C@@H]3CC[C@@H]4CN3C(=O)N4OS(=O)(=O)O)o2)C1 (stereo partly drawn) [Compound 755, (2S,5R)-2-(5-(((3-aminocyclobutyl)amino)methyl)-1,3,4-oxadiazol-2-yl)-7-oxo-1,6-diazabicyclo[3.2.1]octan-6-yl hydrogen sulfate] | more active than Avibactam
N[C@H]1C[C@@H](NCc2nnc([C@@H]3CC[C@@H]4CN3C(=O)N4OS(=O)(=O)O)o2)C1 [Compound 756, (2S,5R)-2-(5-((((1s,3R)-3-aminocyclobutyl)amino)methyl)-1,3,4-oxadiazol-2-yl)-7-oxo-1,6-diazabicyclo[3.2.1]octan-6-yl hydrogen sulfate] | more active than Avibactam
O=C1N2C[C@@H](CC[C@H]2c2nnc([C@H]3CCNC3)o2)N1OS(=O)(=O)O [Compound 758, (2S,5R)-7-oxo-2-(5-((S)-pyrrolidin-3-yl)-1,3,4-oxadiazol-2-yl)-1,6-diazabicyclo[3.2.1]octan-6-yl hydrogen sulfate] | more active than Avibactam
O=C1N2C[C@@H](CC[C@H]2c2nnc([C@@H]3CCNC3)o2)N1OS(=O)(=O)O [Compound 759, (2S,5R)-7-oxo-2-(5-((R)-pyrrolidin-3-yl)-1,3,4-oxadiazol-2-yl)-1,6-diazabicyclo[3.2.1]octan-6-yl hydrogen sulfate] | more active than Avibactam
N[C@@H]1CN[C@H](c2nnc([C@@H]3CC[C@@H]4CN3C(=O)N4OS(=O)(=O)O)o2)C1 [Compound 760, (2S,5R)-2-(5-((2S,4S)-4-aminopyrrolidin-2-yl)-1,3,4-oxadiazol-2-yl)-7-oxo-1,6-diazabicyclo[3.2.1]octan-6-yl hydrogen sulfate] | more active than Avibactam
N[C@H]1CN[C@@H](c2nnc([C@@H]3CC[C@@H]4CN3C(=O)N4OS(=O)(=O)O)o2)C1 [Compound 761, (2S,5R)-2-(5-((2R,4R)-4-aminopyrrolidin-2-yl)-1,3,4-oxadiazol-2-yl)-7-oxo-1,6-diazabicyclo[3.2.1]octan-6-yl hydrogen sulfate] | more active than Avibactam
N[C@H]1CN[C@H](c2nnc([C@@H]3CC[C@@H]4CN3C(=O)N4OS(=O)(=O)O)o2)C1 [Compound 762, (2S,5R)-2-(5-((2S,4R)-4-aminopyrrolidin-2-yl)-1,3,4-oxadiazol-2-yl)-7-oxo-1,6-diazabicyclo[3.2.1]octan-6-yl hydrogen sulfate] | more active than Avibactam
N[C@@H]1CN[C@@H](c2nnc([C@@H]3CC[C@@H]4CN3C(=O)N4OS(=O)(=O)O)o2)C1 [Compound 763, (2S,5R)-2-(5-((2R,4S)-4-aminopyrrolidin-2-yl)-1,3,4-oxadiazol-2-yl)-7-oxo-1,6-diazabicyclo[3.2.1]octan-6-yl hydrogen sulfate] | more active than Avibactam
O=C1N2C[C@@H](CC[C@H]2c2nnc(CC3CCNC3)o2)N1OS(=O)(=O)O (stereo partly drawn) [Compound 764, (2S,5R)-7-oxo-2-(5-(pyrrolidin-3-ylmethyl)-1,3,4-oxadiazol-2-yl)-1,6-diazabicyclo[3.2.1]octan-6-yl hydrogen sulfate] | more active than Avibactam
O=C1N2C[C@@H](CC[C@H]2c2nnc(CN[C@H]3CCNC3)o2)N1OS(=O)(=O)O [Compound 765, (2S,5R)-7-oxo-2-(5-(((S)-pyrrolidin-3-ylamino)methyl)-1,3,4-oxadiazol-2-yl)-1,6-diazabicyclo[3.2.1]octan-6-yl hydrogen sulfate] | more active than Avibactam
O=C1N2C[C@@H](CC[C@H]2c2nnc(CN[C@@H]3CCNC3)o2)N1OS(=O)(=O)O [Compound 766, (2S,5R)-7-oxo-2-(5-(((R)-pyrrolidin-3-ylamino)methyl)-1,3,4-oxadiazol-2-yl)-1,6-diazabicyclo[3.2.1]octan-6-yl hydrogen sulfate] | more active than Avibactam
N=C1NCC(c2nnc([C@@H]3CC[C@@H]4CN3C(=O)N4OS(=O)(=O)O)o2)N1 (stereo partly drawn) [Compound 767, (2S,5R)-2-(5-(2-iminoimidazolidin-4-yl)-1,3,4-oxadiazol-2-yl)-7-oxo-1,6-diazabicyclo[3.2.1]octan-6-yl hydrogen sulfate] | more active than Avibactam
N[C@H]1CC[C@@H](c2nnc([C@@H]3CC[C@@H]4CN3C(=O)N4OS(=O)(=O)O)o2)C1 [Compound 768, (2S,5R)-2-(5-((1R,3S)-3-aminocyclopentyl)-1,3,4-oxadiazol-2-yl)-7-oxo-1,6-diazabicyclo[3.2.1]octan-6-yl hydrogen sulfate] | more active than Avibactam
O=C1N2C[C@@H](CC[C@H]2c2nnc(CCNC3CCNCC3)o2)N1OS(=O)(=O)O [Compound 770, (2S,5R)-7-oxo-2-(5-(2-(piperidin-4-ylamino)ethyl)-1,3,4-oxadiazol-2-yl)-1,6-diazabicyclo[3.2.1]octan-6-yl hydrogen sulfate] | more active than Avibactam
O=C1N2C[C@@H](CC[C@H]2c2nnc(CCCNC3CCNCC3)o2)N1OS(=O)(=O)O [Compound 771, (2S,5R)-7-oxo-2-(5-(3-(piperidin-4-ylamino)propyl)-1,3,4-oxadiazol-2-yl)-1,6-diazabicyclo[3.2.1]octan-6-yl hydrogen sulfate] | more active than Avibactam
O=C1N2C[C@@H](CC[C@H]2c2nnc(CCCCNC3CCNCC3)o2)N1OS(=O)(=O)O [Compound 772, (2S,5R)-7-oxo-2-(5-(4-(piperidin-4-ylamino)butyl)-1,3,4-oxadiazol-2-yl)-1,6-diazabicyclo[3.2.1]octan-6-yl hydrogen sulfate] | more active than Avibactam
NC1CCN(Cc2nnc([C@@H]3CC[C@@H]4CN3C(=O)N4OS(=O)(=O)O)o2)CC1 [Compound 774, (2S,5R)-2-(5-((4-aminopiperidin-1-yl)methyl)-1,3,4-oxadiazol-2-yl)-7-oxo-1,6-diazabicyclo[3.2.1]octan-6-yl hydrogen sulfate] | more active than Avibactam
NC1CCN(CCc2nnc([C@@H]3CC[C@@H]4CN3C(=O)N4OS(=O)(=O)O)o2)CC1 [Compound 775, (2S,5R)-2-(5-(2-(4-aminopiperidin-1-yl)ethyl)-1,3,4-oxadiazol-2-yl)-7-oxo-1,6-diazabicyclo[3.2.1]octan-6-yl hydrogen sulfate] | more active than Avibactam
O=C1N2C[C@@H](CC[C@H]2c2nnc(CCN3CCNCC3)o2)N1OS(=O)(=O)O [Compound 776, (2S,5R)-7-oxo-2-(5-(2-(piperazin-1-yl)ethyl)-1,3,4-oxadiazol-2-yl)-1,6-diazabicyclo[3.2.1]octan-6-yl hydrogen sulfate] | more active than Avibactam
O=C1N2C[C@@H](CC[C@H]2c2nnc(CN3CCNCC3)o2)N1OS(=O)(=O)O [Compound 777, (2S,5R)-7-oxo-2-(5-(piperazin-1-ylmethyl)-1,3,4-oxadiazol-2-yl)-1,6-diazabicyclo[3.2.1]octan-6-yl hydrogen sulfate] | more active than Avibactam
O=C1N2C[C@@H](CC[C@H]2c2nnc([C@H]3CNCCN3)o2)N1OS(=O)(=O)O [Compound 779, (2S,5R)-7-oxo-2-(5-((R)-piperazin-2-yl)-1,3,4-oxadiazol-2-yl)-1,6-diazabicyclo[3.2.1]octan-6-yl hydrogen sulfate] | more active than Avibactam
C[n+]1ccc(-c2nnc([C@@H]3CC[C@@H]4CN3C(=O)N4OS(=O)(=O)[O-])o2)cc1 [Compound 782, (2S,5R)-2-(5-(1-methylpyridin-1-ium-4-yl)-1,3,4-oxadiazol-2-yl)-7-oxo-1,6-diazabicyclo[3.2.1]octan-6-yl sulfate] | more active than Avibactam
N[C@H]1C[C@H](c2nnc([C@@H]3CC[C@@H]4CN3C(=O)N4OS(=O)(=O)O)s2)C1 [Compound 783, (2S,5R)-2-(5-((1r,3S)-3-aminocyclobutyl)-1,3,4-thiadiazol-2-yl)-7-oxo-1,6-diazabicyclo[3.2.1]octan-6-yl hydrogen sulfate] | more active than Avibactam
N=C(N)N[C@H]1C[C@@H](c2nnc([C@@H]3CC[C@@H]4CN3C(=O)N4OS(=O)(=O)O)s2)C1 [Compound 784, (2S,5R)-2-(5-((1s,3R)-3-guanidinocyclobutyl)-1,3,4-thiadiazol-2-yl)-7-oxo-1,6-diazabicyclo[3.2.1]octan-6-yl hydrogen sulfate] | more active than Avibactam
N=C(N)NCCc1nnc([C@@H]2CC[C@@H]3CN2C(=O)N3OS(=O)(=O)O)s1 [Compound 794, (2S,5R)-2-(5-(2-guanidinoethyl)-1,3,4-thiadiazol-2-yl)-7-oxo-1,6-diazabicyclo[3.2.1]octan-6-yl hydrogen sulfate] | more active than Avibactam
